What was measured:
[1] = molecular target: T1, human leukocyte elastase (HLE) (Homo sapiens, UniProt P08246); assay: HLE inhibitory activity (synthetic substrate, pNA release, absorbance 405 nm); assay type: biochemical; conditions: pH 8.6; HLE 5.63 nM, substrate 0.2625 mM; 37°C; read-out: IC₅₀ value HLE
T1 construct: the mixed solution was subjected to density gradient centrifugation, thereby obtaining neutrophiles; from tissue; host or cells: neutrophils from human vein blood (buffy coat)
T1 sequence (P08246 30-247 limits assumed): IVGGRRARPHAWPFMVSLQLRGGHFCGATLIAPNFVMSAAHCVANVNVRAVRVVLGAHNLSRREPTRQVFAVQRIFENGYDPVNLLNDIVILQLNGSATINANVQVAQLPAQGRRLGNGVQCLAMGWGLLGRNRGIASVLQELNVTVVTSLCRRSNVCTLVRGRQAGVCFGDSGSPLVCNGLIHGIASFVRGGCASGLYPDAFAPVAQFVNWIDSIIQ
Procedure: (§1) Activities of the Benzoxazine derivatives of the present invention against human leukocyte elastase (HLE), human sputum elastase (HSE), human cathepsin G (HCG), bovine pancreatic α-chmotrypsin (CYT) and bovine pancreatic trypsin (TRY) were measured by the following method.
A buffy coat was obtained by subjecting human vein blood to centrifugation. To the buffy coat was added distilled water to make a hypotonic solution, thereby bursting erythrocytes. To the residual blood cell component was added a 33.4% of Conrey 400 solution/9% Ficoll solution (the ratio of the former solution to the latter solution is 10:24), and the mixed solution was subjected to density gradient centrifugation, thereby obtaining neutrophiles. The neutrophile fraction was washed with Hanks' buffer for three times and then cells were recovered and cryopreserved at -80°C until use. The cryopreserved-cells were thawed with warm water at 37°C and suspended in a 9-fold volume of lysis buffer containing 0.1M Tris-HCl (pH7.5), 1M MgCl₂ and 0.1% Brij 35. The suspended cells are destroyed by means of polotoron with ice-cooling. The cell suspension was subjected to centrifugation at 100,000 x g for 1 hour. After removing precipitates, 2-fold volume of a Tris-HCl buffer containing 5 mM Tris-HCl(pH 7.5), 1M NaCl and 1.1% Brij 35 was added to the supernatant, thereby obtaining a crude solution of an enzyme extract. The crude solution was subjected to aprotinine affinity column and extracted with an elution buffer containing […] of glycine-HCl (pH 3.3), 1M NaCl and 0.1% Brij 35, thereby obtaining an active fraction. The obtained active fraction was further subjected to MONO S-ion-exchange chromatography and eluted with 2M NaCl linear gradient. The obtained fraction was dialyzed against 25 mM Tris-HCl (pH8.6) and lyophilized, thereby obtained an enzyme sample.
(§2) A test compound was dissolved in DMSO (for fluorometry) and prepared various concentration of the solution. To each concentration was added 2-fold volume of 0.2M Tris-HCl (pH8.6), thereby obtaining a test solution. Synthetic substrate (Funakoshi, L-1335) was dissolved in DMSO and 2-volume of 0.2M Tris-HCl (pH8.6) was added thereto, thereby obtaining a substrate solution. The reaction was performed using a microplate having 96 wells (Nunk). Six-time reactions were repeated for each concentration. One handred and forty µl of an enzyme solution containing 0.2M Tris-HCl (pH8.6), 30 µl of a test solution and 30 µl of a substrate solution per well of the microplate were respectively pre-incubated at 37°C for 10 minutes. After completion of the incubation, the enzyme solution was mixed with the test sample and incubated for 10 minutes and then the substrate solution was added to perform an enzyme reaction. The absorbance of released P-nitroanilide (PNA) was measured at the wave length of 405 nm by means of a microplate reader (MTP-100; CORONA), thereby determining the substrate decomposition. The rate of the substrate decomposition was shown as an average value of 6 repeated reactions. The inhibitory concentration of a test compound relative to the amount of the substrate decomposition in the reaction mixture without a test compound was regarded as an IC₅₀ value. The final concentration of HLE and a synthesized substrate in the reaction mixture were 5.63 nM and 0.2625 mM, respectively.

[2] = molecular target: T2, bovine pancreatic α-chmotrypsin (CYT) (Bos taurus, UniProt P00766); assay: CYT inhibitory activity (synthetic substrate, pNA release); assay type: biochemical; conditions: pH 8.0; CYT 3.4 nM, substrate 0.273 mM; read-out: IC₅₀ value CYT
T2 construct: bovine pancreatic α-chmotrypsin (CYT); purchased Sigma Co., Ltd
Procedure: as §1, §2
a) Enzyme obtaining route CYT was obtained from Sigma Co., Ltd.
Substantially the same method as used in the measurement of the HLE inhibitory activity was used except that a buffer solution (pH 8.0) was used. The final concentration of CYT and synthetic substrate (Funakoshi, L-1010) in a reaction mixture were 3.4 nM and 0.273 mM, respectively.

- IC50 [1]: 70 nM
- IC50 [2]: 1400 nM
SMILES: Cc1cccc2nc([C@@H](NC(=O)OCC(c3ccccc3)c3ccccc3)C(C)C)oc(=O)c12 [Compound 1, 2-[1(S)-[(2,2-diphenylethoxy-carbonyl)amino]-2-methylpropyl]-5-methyl-4H-3,1-benzoxazin-4-one]
